{"source": "patent US20230355647A1", "about": "“Marker for determining anti-cancer effects of mitochondrial oxidative phosphorylation pathway inhibitor” (NANJING SHIJIANG MEDICINE TECHNOLOGY CO., LTD, priority 2020, published 2023)", "key": {"OCI-AML-3": {"tested_on": "OCI-AML-3", "assay": "Cell viability (CellTiter-Glo), OCI-AML-3", "format": "cell-based", "details": "Homo sapiens; OCI-AML-3 cell line, 3-4 days of culture", "protocol": "(§1) Cell viability was detected using the Promega CellTiter-Glo kit, the kit reflected cell viability by directly measuring intracellular ATP content. The inhibitory effect (IC50 value) of Gboxin, a mitochondrial oxidative phosphorylation pathway inhibitor, on different tumor cell lines was tested in the Example. The name, source, and culture condition of each tumor cell line were as follows:\nCell line OCI-AML-3 (DSMZ, No. ACC-582) was cultured in 20% fetal bovine serum-containing RPMI1640 medium (+P/S).\n(§2) The above tumor cells were cultured in the relevant medium (+P/S), and incubated for 3 h, then the gradient diluted Gboxin was added, and IC50 (50% inhibiting concentration) was measured after 3-4 days of culture."}, "SNU-449": {"tested_on": "SNU-449", "assay": "Cell viability (CellTiter-Glo), SNU-449", "format": "cell-based", "details": "Homo sapiens; SNU-449 cell line, 3-4 days of culture", "protocol": "as §1\nCell line SNU-449 (ATCC, No. CRL-2234) was cultured in 10% fetal bovine serum-containing RPMI1640 medium (+P/S).\nas §2"}, "GAK": {"tested_on": "GAK", "assay": "Cell viability (CellTiter-Glo), GAK", "format": "cell-based", "details": "GAK cell line, 3-4 days of culture", "protocol": "as §1\nCell line GAK (JCRB, No. JCRB0180) was cultured in 20% fetal bovine serum-containing Ham's F12 medium (+P/S).\nas §2"}, "[1]": {"tested_on": "NCI-H82 cell with overexpression of NNMT protein and/or knockdown of DNMT1 expression", "assay": "Sensitivity of NCI-H82 after NNMT overexpression and/or DNMT1 knockdown, intracellular ATP detection", "format": "cell-based, human", "details": "FIG. 21, FIG. 22", "from_the_text": "The NCI-H82 cell overexpressing NNMT protein was obtained by inserting the NNMT gene into NCI-H82 cell using a viral vector. The expression of DNMT1 in NCI-H82 cells was knocked down using shRNA transfection. The changes in sensitivity of cells to mitochondrial oxidative phosphorylation pathway inhibitors (Gboxin, Oligomycin A) was investigated using intracellular ATP detection methods after overexpression of NNMT protein and/or knockdown of DNMT1 expression. The experiment result was shown in FIG. 21 and FIG. 22, wherein, “Vector” referred to NCI-H82 cell transfected with empty virus as control group."}, "Gp2D": {"tested_on": "Gp2D", "assay": "Cell viability (CellTiter-Glo), Gp2D", "format": "cell-based", "details": "Homo sapiens; Gp2D cell line, 3-4 days of culture", "protocol": "as §1\nCell line Gp2D (ECACC, No. 95090714) was cultured in 10% fetal bovine serum-containing DMEM medium (+P/S).\nas §2"}, "PC-3": {"tested_on": "PC-3", "assay": "Cell viability (CellTiter-Glo), PC-3", "format": "cell-based", "details": "Homo sapiens; PC-3 cell line, 3-4 days of culture", "protocol": "as §1\nCell line PC-3 (ATCC, No. CRL-1435) was cultured in 10% fetal bovine serum-containing F-12K medium (+P/S).\nas §2"}, "OCI-M1": {"tested_on": "OCI-M1", "assay": "Cell viability (CellTiter-Glo), OCI-M1", "format": "cell-based", "details": "OCI-M1 cell line, 3-4 days of culture", "protocol": "as §1\nCell line OCI-M1 (DSMZ, No. ACC-529) was cultured in 20% fetal bovine serum-containing IMDM medium (+P/S).\nas §2"}, "MJ": {"tested_on": "MJ", "assay": "Cell viability (CellTiter-Glo), MJ", "format": "cell-based", "details": "Homo sapiens; MJ cell line, 3-4 days of culture", "protocol": "as §1\nCell line MJ (ATCC, No. CRL-8294) was cultured 20% fetal bovine serum-containing IMDM medium (+P/S).\nas §2"}, "G-361": {"tested_on": "G-361", "assay": "Cell viability (CellTiter-Glo), G-361", "format": "cell-based", "details": "Homo sapiens; G-361 cell line, 3-4 days of culture", "protocol": "as §1\nCell line G-361 (ATCC, No. CRL-1424) was cultured in 10% fetal bovine serum-containing McCoy's 5a medium (+P/S).\nas §2"}, "NCI-H1048": {"tested_on": "NCI-H1048", "assay": "Cell viability (CellTiter-Glo), NCI-H1048", "format": "cell-based", "details": "Homo sapiens; NCI-H1048 cell line, 3-4 days of culture", "protocol": "as §1\nCell line NCI-H1048 (ATCC, No. CRL-5853) was cultured in 5% fetal bovine serum-containing HITES medium (+P/S).\nas §2"}, "SF126": {"tested_on": "SF126", "assay": "Cell viability (CellTiter-Glo), SF126", "format": "cell-based", "details": "Homo sapiens, SF-126; SF126 cell line, 3-4 days of culture", "protocol": "as §1, with “follows: Cell line SF126 (JCRB, No. IFO50286) was cultured in 10% fetal bovine serum-containing EMEM medium (+P/S). […] Cell viability was detected using the Promega CellTiter-Glo kit, the kit reflected cell viability by directly measuring intracellular ATP content.” for “follows:”"}, "D283 Med": {"tested_on": "D283 Med", "assay": "Cell viability (CellTiter-Glo), D283 Med", "format": "cell-based", "details": "Homo sapiens; D283 Med cell line, 3-4 days of culture", "protocol": "as §1\nCell line D283 Med (ATCC, No. HTB-185) was cultured in 10% fetal bovine serum-containing EMEM medium (+P/S).\nas §2"}, "Daoy": {"tested_on": "Daoy", "assay": "Cell viability (CellTiter-Glo), Daoy", "format": "cell-based", "details": "Homo sapiens; Daoy cell line, 3-4 days of culture", "protocol": "as §1\nCell line Daoy (ATCC, No. HTB-186) was cultured in 10% fetal bovine serum-containing EMEM medium (+P/S).\nas §2"}, "OCI-AML-5": {"tested_on": "OCI-AML-5", "assay": "Cell viability (CellTiter-Glo), OCI-AML-5", "format": "cell-based", "details": "Homo sapiens; OCI-AML-5 cell line, 3-4 days of culture", "protocol": "as §1\nCell line OCI-AML-5 (DSMZ, No. ACC-247) was cultured in alpha-MEM medium containing 20% fetal bovine serum and 10% volume fraction of 5637 cell line adjusted medium (+P/S).\nas §2"}, "ATN-1": {"tested_on": "ATN-1", "assay": "Cell viability (CellTiter-Glo), ATN-1", "format": "cell-based", "details": "Homo sapiens; ATN-1 cell line, 3-4 days of culture", "protocol": "as §1\nCell line ATN-1 (RIKEN, No. RBRC-RCB1440) was cultured in RPMI1640 medium containing 10% fetal bovine serum and 0.1 mM NEAA (+P/S).\nas §2"}, "HCC70": {"tested_on": "HCC70", "assay": "Cell viability (CellTiter-Glo), HCC70", "format": "cell-based", "details": "Homo sapiens; HCC70 cell line, 3-4 days of culture", "protocol": "as §1\nCell line HCC70 (ATCC, No. CRL-2315) was cultured in 10% fetal bovine serum-containing RPMI1640 medium (+P/S).\nas §2"}, "CCRF-CEM": {"tested_on": "CCRF-CEM", "assay": "Cell viability (CellTiter-Glo), CCRF-CEM", "format": "cell-based", "details": "Homo sapiens; CCRF-CEM cell line, 3-4 days of culture", "protocol": "as §1\nCell line CCRF-CEM (ATCC, No. CCL-119) was cultured in 10% fetal bovine serum-containing RPMI1640 medium (+P/S).\nas §2"}}}
{"smiles": "CCc1n(CC(=O)O[C@@H]2C[C@H](C)CC[C@H]2C(C)C)c2ccccc2[n+]1C.[Cl-]", "note": "[Gboxin]", "values": [{"measurement": "IC50", "setting": "OCI-AML-3", "value": 1460, "unit": "nM"}, {"measurement": "IC50", "setting": "SNU-449", "value": "> 30", "unit": "µM"}, {"measurement": "IC50", "setting": "GAK", "value": 7.05, "unit": "µM"}, {"measurement": "sensitivity of NCI-H82 cell to the inhibitor", "setting": "[1]; DNMT1 expression knocked down (sh-DNMT1 #1 or sh-DNMT1 #2) vs Vector", "value": "decreased"}, {"measurement": "sensitivity of NCI-H82 tumor cells to the inhibitor", "setting": "[1]; NNMT overexpressed and DNMT1 knocked down simultaneously (ov-NNMT/sh-DNMT1 #1 and #2)", "value": "decreased more significantly"}, {"measurement": "sensitivity of NCI-H82 cell to the inhibitor", "setting": "[1]; NNMT protein overexpressed alone (ov-NNMT) vs Vector", "value": "decreased"}, {"measurement": "IC50", "setting": "Gp2D", "value": 13.3, "unit": "µM"}, {"measurement": "IC50", "setting": "PC-3", "value": 21.3, "unit": "µM"}, {"measurement": "IC50", "setting": "OCI-M1", "value": 21.7, "unit": "µM"}, {"measurement": "IC50", "setting": "MJ", "value": 12.9, "unit": "µM"}, {"measurement": "IC50", "setting": "G-361", "value": 3.88, "unit": "µM"}, {"measurement": "IC50", "setting": "NCI-H1048", "value": 4.34, "unit": "µM"}, {"measurement": "IC50", "setting": "SF126", "value": "> 30", "unit": "µM"}, {"measurement": "IC50", "setting": "D283 Med", "value": 4.81, "unit": "µM"}, {"measurement": "IC50", "setting": "Daoy", "value": 9.72, "unit": "µM"}, {"measurement": "IC50", "setting": "OCI-AML-5", "value": 2740, "unit": "nM"}, {"measurement": "IC50", "setting": "ATN-1", "value": 1550, "unit": "nM"}, {"measurement": "IC50", "setting": "HCC70", "value": 11.2, "unit": "µM"}, {"measurement": "IC50", "setting": "CCRF-CEM", "value": 2590, "unit": "nM"}]}
